# Source: publication PMC10916623, “Tissue distribution and pharmacokinetics of isoxanthohumol from hops in rodents” (Food Science & Nutrition, 2023)
# Where “and” joins values, the source holds several entries; their conditions need not be identical. Identical values can stand only once.
# Assays:
# [1] = Plasma pharmacokinetics after single-gavage administration of IXA to mice; assay type: in vivo, C57/BL6 mice; settings: single oral IXA 50 mg/kg BW, data not shown
# Description: (§1) Six‐week‐old male C57/BL6 mice (initial BW: 19–24 g; Japan SLC, Shizuoka, Japan) were housed in a room maintained at 23–26°C with a 12‐h light–dark cycle. During the 1‐week acclimatization period, they were allowed free access to a commercial diet (Oriental Yeast Co., Tokyo, Japan) and water. Two days before the experiment, they were fed AIN‐93M (Oriental Yeast Co.). Before drug administration, they were fasted for 20 h, but had free access to water. IXA dissolved in 3% hydroxypropyl‐β‐cyclodextrin and 5% ethanol (Fujifilm; Wako Pure Chemical Corp., Osaka, Japan) was named the injection solution and administered (50 mg/kg BW) to mice intragastrically using a gastric feeding tube (AS ONE, Osaka, Japan). Blood, brain, thymus, heart, lung, liver, spleen, pancreas, kidney, and gastrocnemius muscle were collected 0.5, 1, 2, 4, 8, 12, 24, and 48 h after administration. We also set up a control group, and mice in this group were sacrificed just before we started administering IXA at 0 h. At 4 h after administration, mice were allowed free access to AIN‐93 M. Plasma was isolated by centrifugation at 17 × 10^3 m/s^2 (5911, Kubota, Tokyo, Japan) for 5 min at 4°C. All tissues were dissected, weighed, and immediately frozen in liquid nitrogen. All samples were stored at −80°C until analysis.
# (§2) Plasma samples were deconjugated by β‐glucuronidase type H‐1 (which has β‐glucuronidase and sulphatase activity; Sigma, St. Louis, MO, USA; G0751) to convert aglycon from conjugated metabolites of IXA and 8‐PN, as described in a previous report (Y. Tanaka et al., [2022]). Briefly, 100 μL of plasma was mixed with 900 μL of 0.1 mol/L sodium acetate buffer (pH 4.7), 200 μL of 50 mmol/L ascorbic acid, and 1 mL of 1.67 μkat/100 μL of β‐glucuronidase type H‐1, and then incubated for 30 min at 37°C. Then, 2.4 nmol of QTM was added to the samples as the internal standard. The liberated aglycone was extracted using ethyl acetate (Kanto Kagaku, 14,029‐2B).
# (§3) The plasma and tissue extracts were evaporated using a Centrifugal Evaporator (EYERA, Tokyo, Japan, CVE‐3000). The samples were stored at −80°C until the next day. Then, the samples were dissolved in 120 μL of a mobile phase solution and divided into two test tubes. The first sample was injected into the HPLC with an ultraviolet detection system (Shimadzu, Kyoto, Japan).
# (§4) IXA and 8‐PN concentrations were determined by their respective standard curves using an internal standard method. A Cadenza 3‐μm CD‐C18 HPLC column (CD005, 150 × 4.6 mm; Imtakt Corporation, Kyoto, Japan) was equipped for HPLC (λ = 295 nm). The mobile phase consisted of methanol:water:acetic acid (60:35:5, v/v/v). The flow rate was set at 1.0 mL/min. […] Because clear peaks over 4.5 pmol/sample were detected for IXA and 8‐PN by visual evaluation, we determined that these concentrations were the peak limit of detections for each flavonoid. We applied calibration curves in the IXA/QTM concentration ratio range of 0.007–35.1 (R ^2 = .9955).
# [2] = Tissue distribution after single-gavage administration of IXA to mice; assay type: in vivo, C57/BL6 mice; settings: for 8-PN accumulation, single-ingestion test (at 24 h) / AUC (0–48 h) 8-PN/IXA / C max 8-PN: mice; for 8-PN accumulation, single-ingestion test (at 24 h): single IXA 50 mg/kg BW; for 8-PN accumulation, single-ingestion test (at 24 h) / C max 8-PN: metabolite; for AUC (0–48 h) 8-PN/IXA / C max 8-PN: single oral IXA 50 mg/kg BW
# Description: as §1
# (§5) Tissue sample deconjugation was performed as described in a previous report with slight modifications (Tanaka et al., [2022]). Tissues were homogenized in phosphate‐buffered saline (pH 7.4), which was nine times the tissue volume. The tissue homogenate was incubated in 50 mmol/L ascorbic acid (one‐fifth the volume of phosphate‐buffered saline) and 1.67 μkat/100 μL of β‐glucuronidase type H‐1 in 0.1 mol/L sodium acetate buffer (pH 4.7, nine times the volume of the sample) for 2 h at 37°C. Then, 2.4 nmol of QTM was added to samples as an internal standard. The supernatant was isolated by centrifugation at 17 × 10^3 m/s^2 (Kubota) for 5 min at 4°C. Then, methanol (Kanto Kagaku, 25183‐2B) was added to the pellets, and they were shaken for 1 min. The methanol layer and pellets were separated by centrifugation at 17 × 10^3 m/s^2 (Kubota, RY1071‐A000) for 5 min at 4°C. Methanol extraction was repeated three times. Finally, methanol extracts were mixed with the supernatant (the composition of the mixture was 30% methanol) and then applied to an Inert Sep C8 (200 mg/3 mL; GL Sciences, Tokyo, Japan; 5010‐61082) cartridge. The cartridge was preconditioned with 6 mL of 2% acetic acid in methanol, and then 9 mL of 2% acetic acid in water. The extracted tissue was passed through the cartridge, and it was washed with 5 mL of 2% acetic acid in 30% methanol aq. The flavonoids were eluted with 10 mL of 2% acetic acid in methanol.
# as §3, §4
# [3] = Tissue and plasma accumulation after daily gavage administration of IXA to mice for 14 days; assay type: in vivo, C57/BL6 mice; settings: IXA 30 mg/kg BW daily 14 days, metabolite, 24 h after final administration
# Description: Animal species, age, sex, initial BW, feeding conditions, and dosage method were the same as those for the single gavage administration test, but the dose was 30 mg/kg BW. […] Daily gavage administration without fasting was performed at 12:00 PM for 14 days. The final BW was 21–26 g. Blood, brain, thymus, heart, lung, liver, spleen, kidney, and gastrocnemius muscle were collected 24 h after the final administration. The sample collection method was the same as that for the single gavage administration test.
# as §2, §5, §3, §4
# [4] = Liver accumulation after intragastric IXA administration at various concentrations to rats for 28 days; assay type: in vivo, Sprague–Dawley rats; settings: rat liver
# Description: Six‐week‐old female Sprague–Dawley rats (Charles River Laboratories Japan, Inc., Yokohama, Japan) were housed in a room maintained at 20–26°C on a 12‐h light–dark cycle. The initial BW of rats was 176–179 g. They were allowed free access to a commercial diet (CRF‐1) and water during the experiment. IXA dissolved in injection solution was administered intragastrically to rats (112.5, 225, 360, 450, and 1500 mg/kg BW) daily for 28 days using a gastric feeding tube. We also set up a control group to which the injection solution was administered. The final BW of rats was 231–241 g. The liver was collected the day after the last administration. The rats were fasted for 16–24 h before they were euthanized, but they had free access to water. Liver samples were stored at −80°C until analysis.
# as §5
# The plasma and tissue extracts were evaporated using a Centrifugal Evaporator (EYERA, Tokyo, Japan, CVE‐3000). The samples were stored at −80°C until the next day. Then, the samples were dissolved in 120 μL of a mobile phase solution and divided into two test tubes. […]
# IXA and 8‐PN concentrations were determined by their respective standard curves using an internal standard method. […] Because clear peaks over 4.5 pmol/sample were detected for IXA and 8‐PN by visual evaluation, we determined that these concentrations were the peak limit of detections for each flavonoid. […]
molecule,measurement,setting,value
"4,5,7‐trihydroxy‐8‐prenylflavanone [8‐PN]",8-PN in the plasma during the experiment,[1],not observed
same,"8-PN accumulation, single-ingestion test (at 24 h)",[2]; liver,4.6 ± 1.8 nmol/g of tissue
same,AUC (0–48 h) 8-PN/IXA,[2]; liver,26%
same,C max 8-PN,"[2]; liver, measured at 24 h",4.6 ± 1.8 nmol/g of tissue
same,"8-PN accumulation, single-ingestion test (at 24 h)",[2]; lung,1.8 ± 0.9 nmol/g of tissue
same,AUC (0–48 h) 8-PN/IXA,[2]; lung,109% and 109.3%
same,C max 8-PN,"[2]; lung, measured at 2 h",4.5 ± 2.5 nmol/g of tissue
same,AUC (0–48 h) 8-PN/IXA,[2]; pancreas,1%
same,C max 8-PN,"[2]; pancreas, measured at 1 h",0.6 ± 0.5 nmol/g of tissue
same,"8-PN accumulation, 14-day repeated-ingestion test",[3]; brain,0.8 ± 0.7 nmol/g of tissue
same,"8-PN accumulation, 14-day repeated-ingestion test",[3]; heart,not detected
same,"8-PN accumulation, 14-day repeated-ingestion test",[3]; liver,2.1 ± 0.4 nmol/g of tissue
same,"8-PN accumulation, 14-day repeated-ingestion test",[3]; lung,3.9 ± 3.5 nmol/g of tissue
same,"8-PN accumulation, 14-day repeated-ingestion test",[3]; muscle,0.1 ± 0.0 nmol/g of tissue
same,"8-PN accumulation, 14-day repeated-ingestion test",[3]; plasma,not detected
same,"8-PN accumulation, 14-day repeated-ingestion test",[3]; spleen,0.6 ± 0.6 nmol/g of tissue
same,"8-PN accumulation, 14-day repeated-ingestion test",[3]; thymus,0.6 ± 0.5 nmol/g of tissue
same,amount of 8-PN relative to that of IXA (times higher),"[4]; IXA 112.5 mg/kg, 28 days",approximately two
same,8-PN levels compared with those of IXA,"[4]; IXA 1500 mg/kg, 28 days",approximately 7.4%
same,correlation coefficient between dose-concentration and accumulation,"[4]; IXA 112.5–1500 mg/kg BW once a day for 28 days, Pearson",−.255
"CC(C)=CCc1c(O)cc2c(c1O)C(=O)C[C@@H](c1ccc(O)cc1)O2 [6‐PN, 6‐prenylnaringenin]",presence of 6-PN in the samples analyzed in this study,"[2]; mouse, in vivo",not detected
